Where a SMILES comes first, the peptide text is derived from it. [ ]: non-standard residue; d: D form. Nle = CCCC[C@H](N)C(=O)O
Columns and labels:
HDAC2 [1] = test: Ubiquitination of immunoprecipitated HDAC2 in MonoMac6 cells; format: cell-based, human
Description: FIG. 4: CSE-mediated degradation of HDAC2 is ubiquitin-proteasome dependent in MonoMac6 cells. […] Immunoprecipitated HDAC2 was assayed for bound ubiquitin using specific ubiquitin anti-sera. […] (D) The relative density of ubiquitin expression in MonoMac6 cells after proteasome inhibition of CSE-induced HDAC2 degradation normalized to immunoprecipitated HDAC2.
(§1) Cell lysate controls were used.
(§2) To further confirm this hypothesis, it was determined if exposure to okadaic acid would induce ubiquitination and degradation of HDAC2. […] Immunoprecipitated HDAC2 was then assayed for the presence of ubiquitinated residues using specific ubiquitin anti-sera by western blot. […] To further confirm the hypothesis, MonoMac6 cells were treated with okadaic acid (1 μM) for 0.5 h, cells were fixed in 4% paraformaldehyde and immunostained with anti-HDAC2 antibodies to determine HDAC2 localization.

HDAC2 [2] = test: HDAC2 levels by western blot in MonoMac6 cells; conditions: then CSE 2.5% 6 h
Description: The human monocyte-macrophage cell line (MonoMac6) was established from the peripheral blood of a subject with monoblastic leukemia (21). […]
MonoMac6 cells were washed with Ca^2+/Mg^2+ free PBS and seeded at a density of 5.0×10^6 cells in 100 mm culture plates in a total volume of 7 ml RPMI-1640 containing 0.5% FBS. […] Cells were treated with CSE (2.5%), washed in ice-cold sterile Ca^2+/Mg^2+ free PBS and lysed in RIPA buffer (50 mM Tris HCl pH 7.4, 150 mM NaCl, 0.25 mM EDTA, 5 mM NaF, 0.1% sodium deoxycholate, 1% Triton X-100); cell extracts and cell culture media were stored at −80° C. until analyzed.
Cells were lysed in 100 μl RIPA buffer supplemented with protease inhibitor cocktail (leupeptin, aprotinin, pepstatin and PMSF) and stored at −80° C. […] After extensive washing, primary antibodies were detected with secondary antibodies linked to horseradish peroxidase (Dako, Carpinteria, Calif.) and bound complex detected with enhanced chemiluminescence (PerkinElmer, Waltham, Mass.).

A549 epithelial cells = test: Histone acetylation:deacetylation in A549 epithelial cells; format: cell-based
Excerpt: The effect of cigarette smoke extract/condensate (CSC/CSE) and oxidative stress on histone acetylation:deacetylation and pro-inflammatory gene transcription in A549 epithelial cells has been investigated. […] CSE-mediated decrease in HDAC2 level was associated with posttranslational modifications by 4-hydroxy-2-nonenal and nitric oxide radicals generated by cigarette smoke exposure.

HDAC2 [3] = test: Serine phosphorylation of immunoprecipitated HDAC2 in H292 cells; format: cell-based, human
Description: FIG. 6: CSE induced CK2-dependent HDAC2 phosphorylation in bronchial epithelial and small airway epithelial cells. [A (i)] H292 cells were treated with CSE (2.5%) for 0.5, 1, 2 and 4 h. Immunoprecipitated HDAC2 was analyzed for phosphorylation of serine residues using specific phospho-serine antibodies by SDS polyacrylamide gel. CSE induced significant cyclical phosphorylation of HDAC2 on serine residues at 0.5, 1 and 4 h. [A (ii)] Relative density of phosphor-serine expression normalized to immunoprecipitated HDAC2. [B (i)] […] Immunoprecipitated HDAC2 from whole cell lysates was probed for phosphorylation of serine residues, CSE induced a dose-dependent increase in HDAC2 serine phosphorylation. [B (ii)] Relative density of phospho-serine expression normalized to immunoprecipitated HDAC2. (C) H292 cells were treated with or without specific CK2 inhibitor, TBB. for 1 h, cells were washed with sterile 1×PBS and then treated with freshly prepared CSE (2.5%) for 0.5 h, Immunoprecipitated HDAC2 was assayed for phosphorylation on serine residues. […] (D) Relative density of phosphor-serine expression normalized to immunoprecipitated HDAC2.
FIG. 14: Loss of Serine Sites S^394, S^422, S^424 Abrogates Cigarette Smoke Extract (CSE)-Induced Phosphatase-Independent HDAC2 Phosphorylation. A) Bronchial epithelial H292 cells were transfected with plasmid vector or flag-tagged WT HDAC2 (1-488) for 24 h using lipofectamine 2000 and then treated with or without 2.5% CSE for 0.5 h or B) 50 μM. acrolein for 1 h. Flag-tagged proteins were immunoprecipitated overnight and serine phosphorylation detected by western blots using phospho-serine antibodies. C) Flag-tagged WT HDAC2 was immunoprecipitated from whole cell lysates of H292 cells treated with 2.5% CSE for 0.5 h. Immunoprecipates were then washed and treated with 400 U of λ-phosphatase or buffer alone for 1 h at 30° C. Phosphorylation of serine sites were detected by western blots using anti-serine antibodies. D) H292 cells were transfected with plasmid vector, flag-tagged WT HDAC2 (1-488) or S394A, S394/411/422/424A and 1-400 aa HDAC2 mutants for 24 h with lipofectamine 2000. Cells were then treated with 2.5% CSE for 0.5 h. Serine phosphorylation of immunoprecipitated flag proteins was determined by western blot. E) Phosphatase activity was determined using non-radioactive assay system (Promega). H292 cells were treated with or without 2.5% CSE for 0.5, 2 and 6 h with serine/threonine […] (okadaic acid) used as a positive control. 5 μg protein was incubated with PP2A specific-peptide substrate RRA(pT)VA and reaction buffer for 15 minutes in a 96-well plate. Molybdate dye/additive mixture was added to stop the reaction and color allowed to develop for 15 minutes. Optical density of samples was determined using a microplate reader with a 630 nm filter.
FIG. 18: Protein Kinase CK2 Inhibitors Blocks CSE-Induced HDAC2 Phosphorylation. A) Bronchial epithelial H292 cells transfected with a flag-tagged WT HDAC2 plasmid were treated with 2.5% CSE for 0.5 h. […] B) Relative density of phospho-serine expression normalized to immunoprecipitated HDAC2. Data expressed as mean±SEM (n=3). *** P<0.001, ### P<0.001 significant compared to control treatments.
as §1

HDAC2 [4] = test: Co-immunoprecipitation of flag-tagged HDAC2 with binding partners in H292 cells; format: cell-based, human; conditions: H292, flag-tagged WT HDAC2; TBB 40 μM 2 h and 90 μM 0.5 h, then CSE 2.5% 0.5 h
Description: FIG. 16: HDAC2 serine phosphorylation is associated with increased interaction with catalytic subunits of protein kinase CK2 in response to CSE. A) Bronchial epithelial H292 cells transfected with either a control vector (control V) or flag-tagged WT HDAC2 were treated with 2.5% CSE for 0.5 h. […] C) Bronchial epithelial H292 cells transfected with flag-tagged WT HDAC2 were treated with either 2.5% CSE for 0.5 h, 25 or 50 μM Acrolein for 1 h and 200 μM H202 for 0.5 and 2 h respectively.
A) H292 cells cultured on 8-well chamber slides were treated with 2.5% CSE for 0.5 h or 50 μM Acrolein for 1 h, washed and fixed with 4% PFA. Slides were incubated with HDAC2 and α-tubulin antibodies overnight at […]. Slides were mounted with antifade mounting solution and images analysed by an Olympus inverted microscope. B) H292 cells were transfected with plasmid vector (Ctrl V) or flag-tagged WT HDAC2 (1-488) for 24 h with lipofectamine 2000. Cells were treated with 2.5% CSE for 0.5 h and flag proteins immunoprecipitated using M2 anti-flag antibodies overnight at 4° C. HDAC1 and C) p53 interaction were determined by western blot. D) H292 cells were transfected with plasmid vector (Ctrl V), flag-tagged WT HDAC2 (1-488) or S^394/^411/^422/^424A and 1-400 amino acid HDAC2 mutants for 24 h with lipofectamine 2000. Cells were then exposed to 2.5% CSE for 0.5 h. Levels of HDAC2 interaction with HDAC1 were determined by western blotting using specific antibodies. E) H292 cells were transfected with flag-tagged WT HDAC2 (1-488) for 24 h with lipofectamine 2000. […] Levels of phospho-serine and HDAC2 interaction with SAP30, RbAp46/48, MBD3 and p65 were determined by western blotting using specific antibodies respectively. […] Levels of HDAC1 and p65 binding to immunoprecipitated flag-tagged HDAC2 was determined by western blotting. […] Deacetylase activity of immunoprecipitated HDAC2 was determined using a specific HDAC2 deacetylase activity kit. Data expressed as mean±SEM (n=3). *** P<0.001 significant compared to control treatments.

[5] = system: LPS-induced lung inflammation; test: LPS-induced lung inflammation in HDAC2−/− mice; format: in vivo, mouse
Excerpt: Mice. The Nrf2 knockout (KO) mouse strain (Nrf2−/− on C57BL/6J background) used in this study is described earlier and was generously supplied by Prof. Masayuki Yamamoto, University of Tsukuba, Japan via the RIKEN BioResource Center, Tsukuba, Japan. HDAC2 mutant (HDAC2−/− on C57BL/6J background) mice were kindly provided by Dr. J. A. Epstein (University of Pennsylvania School of Medicine, Philadelphia, Pa.). […] Wild-type (WT) C57BL/6J mice were purchased from Jackson laboratories (Bar Harbor, Me.). All animal protocols for this study were approved by the University Committee on Animal Research of the University of Rochester.
LPS exposure studies in mice were performed as described previously. Briefly, age-matched WT, Nrf2−/− and HDAC2−/− were exposed to aerosolized Escherichia coli LPS (1 mg/ml) for 8 minutes. […]
Bronchoalveolar lavage. […] Supernatants were frozen at −80° C. until required for further analysis and cell pellets resuspended in 1 ml of saline, and total number of cells determined using a haemocytometer. Differential counts (minimum 500 per slide) were determined using Diff-Quik (Dade Behring, Newark, Del.)-stained cytospin slides.
Cytokine Analysis. Monocyte chemotactic protein 1 (MCP-1) levels were measured from mouse lung soluble protein by enzyme-linked immunosorbent assay (ELISA) with the duo-antibody kit (R & D Systems). […]

[6] = system: LPS-induced lung inflammation; test: LPS-induced lung inflammation in WT mice; format: in vivo, mouse
Description: LPS exposure studies in mice were performed as described previously. Briefly, age-matched WT, Nrf2−/− and HDAC2−/− were exposed to aerosolized Escherichia coli LPS (1 mg/ml) for 8 minutes. Aerosolized saline-exposed mice were used as controls, and animals were sacrificed at 24 h post last exposure.
Corticosteroid treatment.
Bronchoalveolar lavage. Mice were anaesthetized by pentobarbital (Abbott Laboratories, Abbott Park, Ill.) intraperitoneal injection (100 mg/kg body weight) before sacrifice. Lungs were then removed and lavaged three times with 0.6 ml of 0.9% sodium chloride with cannula inserted into the trachea. Total lavage fluid for each mouse was combined and then centrifuged. Supernatants were frozen at −80° C. until required for further analysis and cell pellets resuspended in 1 ml of saline, and total number of cells determined using a haemocytometer. Differential counts (minimum 500 per slide) were determined using Diff-Quik (Dade Behring, Newark, Del.)-stained cytospin slides.
Cytokine Analysis. Monocyte chemotactic protein 1 (MCP-1) levels were measured from mouse lung soluble protein by enzyme-linked immunosorbent assay (ELISA) with the duo-antibody kit (R & D Systems). Results were normalized to protein concentration per sample.

HDAC2 [7] = test: Phosphorylation of immunoprecipitated HDAC2 in MonoMac6 cells; conditions: okadaic acid 1 μM, 0.5 and 1 h
Description: MonoMac6 cells were washed with Ca^2+/Mg^2+ free PBS and seeded at a density of 5.0×10^6 cells in 100 mm culture plates in a total volume of 7 ml RPMI-1640 containing 0.5% FBS. Cells were treated with CSE (2.5%) or Okadaic acid (40 nM and 1 μM) (Alexis Biochemicals, San Diego, Calif.). For treatments with protein casein kinase CK2 inhibitor, 4,5,6,7-tetrabromobenzotriazole (TBB), cells were pretreated with 20 μM TBB (Sigma, St. Louis, Mo.) for 1 or 2 h, cells were then washed with sterile PBS before treatment with CSE. […] Cells were treated with CSE (2.5%), washed in ice-cold sterile Ca^2+/Mg^2+ free PBS and lysed in RIPA buffer (50 mM Tris HCl pH 7.4, 150 mM NaCl, 0.25 mM EDTA, 5 mM NaF, 0.1% sodium deoxycholate, 1% Triton X-100); cell extracts and cell culture media were stored at −80° C. until analyzed.
Cell lysate (200 μg protein) was incubated for overnight with anti-HDAC2 (2 μg) at 4° C., then immunoprecipitated with Protein G-agarose beads for 1 h with constant agitation. Beads were washed at least four times with RIPA buffer, boiled for 10 minutes in 35 μl 2× sample buffer and resolved on a 7.5% SDS-polyacrylamide gel. Cell lysate controls were used. Blots were probed with p-serine (1:1000) and p-threonine (1:1000) (Cell Signaling, Boston, Mass.) monoclonal antibodies for studies on the post-translational modification of HDAC2.

HDAC2 [8] = test: HDAC2 immunostaining (localization) in MonoMac6 cells; format: cell-based, human; conditions: okadaic acid 1 μM, 0.5 h
Description: (B) Relative density of HDAC2 levels in human macrophage cells (MonoMac6 cells) at various time points of exposure to CSE.
To determine if CSE induced significant HDAC2 nucleo-cyloplasmic shuttling, MonoMac6 cells were treated with CSE (2.5%) for 4 and 6 h, cells were fixed in 4% paraformaldehyde and immunostained with anti-HDAC2 antibodies to determine HDAC2 localization. […] To determine whether shuttling occurred at earlier time points subsequent to degradation of HDAC2, MonoMac6 cells were exposed to CSE (2.5%) for 0.5 h and 1 h (data not shown).
as §2

MonoMac6 cells = format: cell-based, human
Description: In this study, it was determined the time-dependent effect of CSE on class I HDAC levels MonoMac6 cells were exposed to CSE (2.5%) for 0.5, 1, 2, 4 and 6 h. […] To determine whether class 1 HDAC degradation was due to decreased CSE-induced cell viability, the levels of lactate dehydrogenase (LDH) secreted into conditioned cell media was measured immediately after harvest.

CK2α = CK2α phosphorylation in H292 cells; format: cell-based, human; conditions: okadaic acid 100 nM and 1 μM, 0.5 and 1 h
Description: FIG. 15: CK2α Is Phosphorylated In Response to CSE. […] 80 μg whole cell lysates were then treated with 400 U of λ-phosphatase or buffer alone for 1 h at 30° C. The reaction was stopped by adding equal volume of 2× sample buffer and relative CK2α expression determined by western blotting. D) H292 cells were treated with 100 nM and 1 μM okadaic acid for 0.5 and 1 h. Relative CK2α expression was determined by western blotting using 20 μg whole cell lysates.

CCCC[C@@H](C=O)NC(=O)[C@H](CC(C)C)NC(=O)[C@H](CC(C)C)NC(C)=O [ALLN, N-Acetyl-Leu-Leu-Nle-CHO] (Ac-Leu-Leu-[Nle]-aldehyde)
CSE-induced HDAC2 ubiquitination (HDAC2 [1]; ALLN 1 μM pre-treatment, CSE 2.5% 6 h): further enhanced
CSE-induced HDAC2 degradation (HDAC2 [2]; ALLN 1 μM and 5 μM pretreated 2 h): dose-dependently inhibited HDAC2 degradation

OO [H2O2, hydrogen peroxide]
histone deacetylase (HDAC) activity and HDAC2 protein levels (A549 epithelial cells; H2O2): inhibited
histone acetylation (with histone acetyltransferase activity) (A549 epithelial cells; hydrogen peroxide 100 μM): caused an increase in histone acetylation
HDAC2 phosphorylation (HDAC2 [3]; H292, flag-tagged WT HDAC2, H2O2 200 μM, 0.5 and 2 h): inability

Brc1c(Br)c(Br)c2[nH]nnc2c1Br [TBB]
CSE-induced HDAC2 degradation (HDAC2 [2]; TBB 20 μM pre-treated 2 h): significantly attenuated HDAC2 degradation
CSE-induced HDAC2 phosphorylation (HDAC2 [3]; H292, flag-tagged WT HDAC2, TBB 50 μM pre-treated 2 h, then CSE 2.5% 0.5 h): completely inhibiting CSE-induced HDAC2 phosphorylation
CSE-induced HDAC2 phosphorylation (HDAC2 [3]; H292, TBB 20 μM pretreated 1 h, then CSE 0.5 h): completely reversed CSE-induced HDAC2 phosphorylation
CSE-induced HDAC2 phosphorylation (HDAC2 [3]; H292, TBB 25 μM pre-treated, then CSE): inhibit HDAC2 phosphorylation but not as efficiently
HDAC2 interaction with HDAC1 and p65 (HDAC2 [4]): blocked HDAC2 interaction with both HDAC1 and p65

CCCC1O[C@@H]2C[C@H]3[C@@H]4CCC5=CC(=O)C=C[C@]5(C)[C@H]4[C@@H](O)C[C@]3(C)[C@]2(C(=O)CO)O1 (stereo partly drawn) [budesonide]
neutrophil counts in BALF ([5]; budesonide 3 mg/kg pretreatment, LPS): no effect
efficacy in decreasing MCP-1 release ([5]; budesonide, LPS exposure): 26.4%
attenuation of lung neutrophil influx following LPS exposure ([6]; budesonide 3 mg/kg pretreatment): ~50%
efficacy in decreasing MCP-1 release ([6]; budesonide, LPS exposure): 49.4%

C=C1[C@@H](O)[C@@H]2O[C@]3(CC[C@H](/C=C/[C@@H](C)[C@@H]4CC(C)=C[C@@]5(O[C@H](C[C@@](C)(O)C(=O)O)CC[C@H]5O)O4)O3)CC[C@H]2O[C@@H]1[C@@H](O)C[C@H](C)[C@H]1O[C@@]2(CCCCO2)CC[C@H]1C [okadaic acid]
ubiquitination of HDAC2 (HDAC2 [1]; okadaic acid 40 nM, 24 h): significantly induced the ubiquitination of HDAC2
phosphorylation of HDAC2 on serine residues (HDAC2 [7]): significantly induced the phosphorylation of HDAC2 on serine residues
nuclear HDAC2 (immunostaining) (HDAC2 [8]): significantly induced the loss of nuclear HDAC2
nucleo-cytoplasmic shuttling of HDAC2 (HDAC2 [8]): no nucleo-cytoplasmic shuttling of HDAC2 was observed
toxicity to cells (trypan blue viability, morphology) (MonoMac6 cells; okadaic acid 40 nM, 24 h): not toxic to the cells
cell death (MonoMac6 cells; okadaic acid 1 μM, beyond 1 h): induced cell death
CK2α phosphorylation (CK2α): induced CK2α phosphorylation

Source: US20120022129A1, “Targeting of Histone Deacetylase 2, Protein Kinase CK2, and Nuclear Factor NRF2 For Treatment of Inflammatory Diseases” (priority 2008, published 2012)
